# In patent US20150216903A1, “COMPOUNDS FOR IMPROVED VIRAL TRANSDUCTION” (BLUEBIRD BIO, INC., priority 2012, published 2015):
# Columns and labels:
# CD34+ cells [1] = assay: 7-Day liquid culture, FACS analysis after transduction with GFP+ lentivirus; type: cell-based, human
# Method: (§1) One vial of CD34+ cells (AllCells) were thawed by incubating at 37° C. for 1-2 minutes and contents were transferred to 10 mL Stem Cell Growth Media (hereafter referred to as SCGM) in a 15-mL conical tube. Cells were spun for 5 minutes at 1500 RPM in a standard tabletop centrifuge, resuspended in 10 mL SCGM and counted on a hemacytometer. A volume correlating with an appropriate number of cells was transferred to a fresh 15-mL conical tube, and again spun for 5 minutes at 1500 RPM. Cells were resuspended to the desired cell concentration in SCGM+1× cytokines (100 ng/mL SCF, 100 ng/mL TPO, 100 ng/mL FltL, and 30 ng/mL IL-3), and plated on a sterile non-adherent surface at 37° C. in a standard humidified tissue culture incubator (5% CO2).
# (§2) Pre-stimulated cells (Example 1) were counted after 18-24 hours of culture. The cells were collected and spun for 5 minutes at 1500 RPM. 1.2×10^6 pre-stimulated CD34^+ cells were resuspended in 60 uL 10× cytokines (1000 ng/mL SCF, 1000 ng/mL TPO, 1000 ng/mL FltL, and 300 ng/mL IL-3), 7.8 uL protamine sulfate, 111 uL viral supernatant, and 361.2 uL SCGM. 90 uL cell/virus suspension (about 200,000 cells) was added to each well of a standard non-adherent 96-well plate. dmPGE2 was added during this viral transduction step at a final concentration of 100 uM, 50 uM, 25 uM, 12.5 uM, 1 uM, or 0 uM.
# Cells were incubated at 37° C. in a standard humidified tissue culture incubator (5% CO2).
# Aliquots of 10 mM dmPGE2 in DMSO were prepared from 1 mg previously processed dmPGE2 (Cayman Chemicals). Briefly, air was pipetted into the vial of dmPGE2 until methyl acetate was evaporated. 263 uL DMSO was added to the PGE2 remaining in the vial, and aliquots of 25 uL were added to 1.5 mL Eppendorf tubes and stored at −80° C. 10× working stock solutions were prepared by serial dilution of dmPGE2 in SCGM, and were then added to cells at appropriate working concentrations, according to Table 2. Cells were then incubated at 37° C. in a standard humidified tissue culture incubator (5% CO2).
# (§3) After 24 hours of culture with virus and dmPGE2, cells were washed prior to subsequent functional validation assays. Washing was performed by transferring cells to a 96-well U-bottom plate and spinning for 5 minutes at 1500 RPM in a standard tabletop centrifuge. Media was aspirated and cells were resuspended in 200 uL SCGM. Cells were spun again for 5 minutes at 1500 RPM and media was aspirated. Cells were again resuspended in 200 uL SCGM then spun for 5 minutes at 1500 RPM, and again the media was aspirated. Particular functional validation assays are described below.
# (§4) Washed cells were resuspended in 200 uL SCGM+lx cytokines (as described in Example 1) and transferred to a standard 12-well non-adherent tissue culture plate containing an additional 800 uL SCGM+lx cytokines Cells were maintained for an additional 6 days in a standard humidified tissue culture incubator (5% CO2) and then subjected Vector Copy Number analysis (Example 5) and FACS analysis. For FACS analysis, cells were assayed for the presence of a virally-encoded transgene, green fluorescent protein (GFP). The frequency of the virally-labeled cells within the pool of cultured cells was quantified as the frequency of GFP+ cells within the population. The mean fluorescence intensity of labeled cells was quantified.
# Tables 3A-C indicate the dose-response of dmPGE2 in promoting viral transduction of CD34+ cells for three separate experiments. CD34+ cells were thawed and pre-stimulated with SCF, TPO, FltL, and IL3, then transduced (A) with GFP+ lentivirus at a multiplicity of infection of 25, (B) with GFP+ lentivirus at a multiplicity of infection of 5, or (C) transduced with an ALD (ABCD1)-expressing lentivirus at a multiplicity of infection of 25. Cells were exposed to dmPGE2 during the viral transduction step (24-48 hours of culture). Cells were then washed and analyzed by flow cytometry and PCR after approximately 1 week in culture. […]
# CD34+ cells [2] = assay: FACS staining after transduction with ALD (ABCD1)-expressing lentivirus; type: cell-based, human; conditions: ABCD1 lentivirus MOI 25
# Method: as §1, §2, §3, §4
# Tables 3A-C indicate the dose-response of dmPGE2 in promoting viral transduction of CD34+ cells for three separate experiments. CD34+ cells were thawed and pre-stimulated with SCF, TPO, FltL, and IL3, then transduced (A) with GFP+ lentivirus at a multiplicity of infection of 25, (B) with GFP+ lentivirus at a multiplicity of infection of 5, or (C) transduced with an ALD (ABCD1)-expressing lentivirus at a multiplicity of infection of 25. Cells were exposed to dmPGE2 during the viral transduction step (24-48 hours of culture). Cells were then washed and analyzed by flow cytometry and PCR after approximately 1 week in culture. The percentage of cells positive for GFP (A, B) or ALD (C) via FACS staining is indicated, along with the mean fluorescent intensity (MFI) and vector copy number (VCN) (A, B).
structure (smiles),measurement,setting,value
"CCCCC(C)(C)[C@H](O)/C=C/[C@H]1[C@H](O)CC(=O)[C@@H]1C/C=C\CCCC(=O)O [dmPGE2, 16,16-dimethyl PGE2]",% Positive (GFP),"CD34+ cells [1]; dmPGE2 12.5 uM during transduction (24-48 hours of culture), GFP lentivirus MOI 5",17.84%
same,% Positive (GFP),"CD34+ cells [1]; dmPGE2 12.5 uM during transduction (24-48 hours of culture), GFP lentivirus MOI 25",54.71%
same,MFI,"CD34+ cells [1]; dmPGE2 12.5 uM during transduction, GFP lentivirus MOI 5","530,218.50"
same,MFI,"CD34+ cells [1]; dmPGE2 12.5 uM during transduction, GFP lentivirus MOI 25","759,442.75"
same,% Positive (GFP),"CD34+ cells [1]; dmPGE2 25 uM during transduction (24-48 hours of culture), GFP lentivirus MOI 5",18.69%
same,% Positive (GFP),"CD34+ cells [1]; dmPGE2 25 uM during transduction (24-48 hours of culture), GFP lentivirus MOI 25",59.99%
same,MFI,"CD34+ cells [1]; dmPGE2 25 uM during transduction, GFP lentivirus MOI 5","562,428.00"
same,MFI,"CD34+ cells [1]; dmPGE2 25 uM during transduction, GFP lentivirus MOI 25","845,691.00"
same,% Positive (GFP),"CD34+ cells [1]; dmPGE2 50 uM during transduction (24-48 hours of culture), GFP lentivirus MOI 5",36.80%
same,% Positive (GFP),"CD34+ cells [1]; dmPGE2 50 uM during transduction (24-48 hours of culture), GFP lentivirus MOI 25",67.62%
same,MFI,"CD34+ cells [1]; dmPGE2 50 uM during transduction, GFP lentivirus MOI 5","656,703.50"
same,MFI,"CD34+ cells [1]; dmPGE2 50 uM during transduction, GFP lentivirus MOI 25","977,806.75"
same,% Positive (GFP),"CD34+ cells [1]; dmPGE2 100 uM during transduction (24-48 hours of culture), GFP lentivirus MOI 5",42.97%
same,% Positive (GFP),"CD34+ cells [1]; dmPGE2 100 uM during transduction (24-48 hours of culture), GFP lentivirus MOI 25",81.53%
same,MFI,"CD34+ cells [1]; dmPGE2 100 uM during transduction, GFP lentivirus MOI 5","732,716.25"
same,MFI,"CD34+ cells [1]; dmPGE2 100 uM during transduction, GFP lentivirus MOI 25","1,513,504.00"
same,% Positive (ALD),CD34+ cells [2]; dmPGE2 1 uM during transduction (24-48 hours of culture),34.13%
same,% Positive (ALD),CD34+ cells [2]; dmPGE2 12.5 uM during transduction (24-48 hours of culture),45.36%
same,% Positive (ALD),CD34+ cells [2]; dmPGE2 25 uM during transduction (24-48 hours of culture),43.76%
same,% Positive (ALD),CD34+ cells [2]; dmPGE2 50 uM during transduction (24-48 hours of culture),56.10%
same,% Positive (ALD),CD34+ cells [2]; dmPGE2 100 uM during transduction (24-48 hours of culture),72.26%
